{"source": "patent US7557099B2", "about": "“Pyrrolobenzodiazepines as key intermediates in the synthesis of dimeric cytotoxic pyrrolobenzodiazepines” (Spirogen Limited, priority 2004, dated 2009)", "key": {"[1]": {"system": "K562 human chronic myeloid leukaemia cells", "assay": "In vitro cytotoxicity, K562 cells, MTT assay", "assay_type": "cell-based", "details": "Homo sapiens", "method": "K562 human chronic myeloid leukaemia cells were maintained in RPM1 1640 medium supplemented with 10% fetal calf serum and 2 mM glutamine at 37° C. in a humidified atmosphere containing 5% CO2 and were incubated with a specified dose of drug for 1 hour or 96 hours at 37° C. in the dark. The incubation was terminated by centrifugation (5 min, 300 g) and the cells were washed once with drug-free medium. Following the appropriate drug treatment, the cells were transferred to 96-well microtiter plates (10^4 cells per well, 8 wells per sample). Plates were then kept in the dark at 37° C. in a humidified atmosphere containing 5% CO2. The assay is based on the ability of viable cells to reduce a yellow soluble tetrazolium salt, 3-(4,5-dimethylthiazol-2-yl)-2,5-diphenyl-2H-tetrazolium bromide (MTT, Aldrich-Sigma), to an insoluble purple formazan precipitate. Following incubation of the plates for 4 days (to allow control cells to increase in number by approximately 10 fold), 20 μL of MTT solution (5 mg/mL in phosphate-buffered saline) was added to each well and the plates further incubated for 5 hours. The plates were then centrifuged for 5 minutes at 300 g and the bulk of the medium pipetted from the cell pellet leaving 10-20 μL per well. DMSO (200 μL) was added to each well and the samples agitated to ensure complete mixing. The optical density was then read at a wavelength of 550 nm on a Titertek Multiscan ELISA plate reader, and a dose-response curve was constructed. For each curve, an IC50 value was read as the dose required to reduce the final optical density to 50% of the control value."}, "linear pBR322 DNA": {"system": "linear pBR322 DNA", "assay": "DNA cross-linking, electrophoretic assay (XL50)", "assay_type": "biochemical", "details": "concentration giving 50% cross-linked plasmid DNA; 2 hours, 37° C., pH 7.2", "method": "The extent of DNA cross-linking induced by each PBD dimer was determined using the electrophoretic assay method of Hartley, et al. (Hartley, J. A., Berardini, M. D., and Souhami, R. L. (1991) Anal. Biochem. 193, 131-134) based on the principle that, following complete denaturation of linear pBR322 DNA (˜4,300 bp) to the single-stranded (SS) form, an interstrand cross-link results in renaturation to double-stranded (DS) in a neutral gel.\nClosed-circular DNA was linearized with HindIII, then dephosphorylated and finally 5′-singly end-labelled using [γ^32P]-ATP and polynucleotide kinase. Reactions containing 30-40 ng of DNA and the test compound were carried out in aqueous TEOA (25 mM triethanolamine, 1 mM EDTA, pH 7.2) buffer at 37° C. in a final volume of 50 μl for 2 hours. Reactions were terminated by addition of an equal volume of stop solution (0.6 M NaOAc, 20 mM EDTA, 100 μg/ml tRNA) followed by precipitation with ethanol. Following centrifugation, the supernatant was discarded and the pellet dried by lyophilization. Samples were re-suspended in 10 μl of strand separation buffer (30% DMSO, 1 mM EDTA, 0.04% bromophenol blue and 0.04% xylene cylanol) and denatured by heating to 90° C. for 2.5 min, followed by immersion in an ice/water bath. Control non-denatured samples were re-suspended in 10 μl of non-denaturing buffer solution (0.6% sucrose, 0.04% bromophenol blue in aqueous TAE buffer [40 mM Tris, 20 mM acetic acid, 2 mM EDTA, pH 8.1]) and loaded directly onto the gel for comparison.\nElectrophoresis was carried out for 14-16 h at 40 V using a 0.8% submerged agarose gel (20×25×0.5 cm) in TAE buffer. Gels were dried under vacuum for 2 hour at 80° C. onto one layer each of Whatman 3MM and DE8I filter papers using a BioRad 583 gel dryer. Autoradiographs were obtained after exposure of Hyperfilm-MP film (Amersham plc, U.K.) to the dried gel for either 4 hour with a screen (or over night, without a screen, to obtain a sharper image). Film bands were quantitated using a BioRad GS-670 imaging laser densitometer. Percentage cross-linking was calculated by measuring the total DNA in each lane (summed density for the double-stranded [DS] and single-stranded [SS] bands) relative to the amount of cross-linked DNA (density of DS band alone). A dose-response curve was derived by plotting drug concentration against the determined percentage level of cross-linked DNA which was then analysed to determine the concentration of test compound that results in 50% cross-linked plasmid DNA (XL50)."}, "[2]": {"system": "approximately 60 human tumour cell lines", "assay": "NCI 60 cell screen, SRB assay", "assay_type": "cell-based", "details": "Homo sapiens, 48 hour continuous exposure", "method": "The National Cancer Institute (NCI), Bethesda, Md., USA has available an in vitro cytotoxicity screen which consists of approximately 60 human tumour cell lines against which compounds are tested at a minimum of five concentrations each differing 10-fold. A 48 hour continuous exposure protocol is used, where cell viability or growth is estimated with an SRB protein assay.\nThe test compounds were evaluated against approximately 60 human tumour cell lines. The NCI screening procedures were described in detail by Monks and co-workers (Monks, A et al., Journal of the National Cancer Institute, 1991, 83, 757). Briefly, cell suspensions were diluted according to the particular cell type and the expected target cell density (5000-40,000 cells per well based on cell growth characteristics), and added by pipette (100 μL) into 96-well microtitre plates. The cells were allowed a preincubation period of 24 hours at 37° C. for stabilisation. Dilutions at twice the intended test concentration were added at time zero in 100 μL aliquots to the wells. The test compounds were evaluated at five 10-fold dilutions (10^−4, 10^−5, 10^−6, 10^−7 and 10^−[…]). The test compounds were incubated for 48 hours in 5% CO2 atmosphere and 100% humidity. The cells were then assayed using the sulphorhodamine B assay. A plate reader was used to read the optical densities and a microcomputer processed the readings into GI50 values (in Moles), which is the dosage required to limit cell growth to 50%."}, "[3]": {"details": "1 hr exposure, read-out: IC50 1 hr exposure"}, "[4]": {"details": "96 hr exposure, sub-table of 16e-j, read-out: IC50 96 hr exposure"}}, "note": "Where two headings read alike, the source gives them in different places."}
{"smiles": "COc1ccc2c(c1)N=C[C@H]1C(OCCCCCCCCCCCOC3CCN4C(=O)c5ccc(OC)cc5N=C[C@@H]34)CCN1C2=O", "note": "(stereo partly drawn) [Compound 9i, 1,1′-[(Undecane-1,11-diyl)dioxy]bis[(11aS)-8-methoxy-1,2,3,11a-tetrahydro-5H-pyrrolo[2,1-c][1,4]benzodiazepine-5-one]]", "values": [{"measurement": "IC50", "setting": "[1]; [3]", "value": 9000, "unit": "nM"}, {"measurement": "EC50", "setting": "linear pBR322 DNA", "value": 190, "unit": "nM"}, {"measurement": "GI50", "setting": "[2]", "value": 570, "unit": "nM"}]}
{"smiles": "COc1ccc2c(c1)C(=O)N1CCC(OCCCOC3CCN4C(=O)c5cc(OC)ccc5N=C[C@@H]34)[C@@H]1C=N2", "note": "(stereo partly drawn) [Compound 16a, 1,1′-[(Propane-1,3-diyl)dioxy]bis[(11aS)-7-methoxy-1,2,3,11a-tetrahydro-5H-pyrrolo[2,1-c][1,4]benzodiazepine-5-one]]", "values": [{"measurement": "IC50", "setting": "[1]; [3]", "value": 12800, "unit": "nM"}, {"measurement": "EC50", "setting": "linear pBR322 DNA", "value": 50, "unit": "nM"}, {"measurement": "GI50", "setting": "[2]", "value": 3160, "unit": "nM"}]}
{"smiles": "COc1ccc2c(c1)C(=O)N1CCC(OCCCCCCCCCCOC3CCN4C(=O)c5cc(OC)ccc5N=C[C@@H]34)[C@@H]1C=N2", "note": "(stereo partly drawn) [Compound 16h, 1,1′-[(Decane-1,10-diyl)dioxy]bis[(11aS)-7-methoxy-1,2,3,11a-tetrahydro-5H-pyrrolo[2,1-c][1,4]benzodiazepine-5-one]]", "values": [{"measurement": "IC50", "setting": "[1]; [4]", "value": 352, "unit": "nM"}, {"measurement": "EC50", "setting": "linear pBR322 DNA", "value": 5000, "unit": "nM"}, {"measurement": "GI50", "setting": "[2]", "value": 54, "unit": "nM"}]}
{"smiles": "COc1ccc2c(c1)C(=O)N1CCC(OCCCCCCCCCOC3CCN4C(=O)c5cc(OC)ccc5N=C[C@@H]34)[C@@H]1C=N2", "note": "(stereo partly drawn) [Compound 16g, 1,1′-[(Nonane-1,9-diyl)dioxy]bis[(11aS)-7-methoxy-1,2,3,11a-tetrahydro-5H-pyrrolo[2,1-c][1,4]benzodiazepine-5-one]]", "values": [{"measurement": "IC50", "setting": "[1]; [4]", "value": 26, "unit": "nM"}, {"measurement": "EC50", "setting": "linear pBR322 DNA", "value": 1500, "unit": "nM"}, {"measurement": "GI50", "setting": "[2]", "value": 19, "unit": "nM"}]}
{"smiles": "COc1ccc2c(c1)N=C[C@H]1C(OCCCCCCCCCOC3CCN4C(=O)c5ccc(OC)cc5N=C[C@@H]34)CCN1C2=O", "note": "(stereo partly drawn) [Compound 9g, 1,1′-[(Nonane-1,9-diyl)dioxy]bis[(11aS)-8-methoxy-1,2,3,11a-tetrahydro-5H-pyrrolo[2,1-c][1,4]benzodiazepine-5-one]]", "values": [{"measurement": "IC50", "setting": "[1]; [3]", "value": 17300, "unit": "nM"}, {"measurement": "EC50", "setting": "linear pBR322 DNA", "value": 980, "unit": "nM"}, {"measurement": "GI50", "setting": "[2]", "value": 570, "unit": "nM"}]}
{"smiles": "COc1ccc2c(c1)N=C[C@H]1C(OCCCCCCCCCCOC3CCN4C(=O)c5ccc(OC)cc5N=C[C@@H]34)CCN1C2=O", "note": "(stereo partly drawn) [Compound 9h, 1,1′-[(Decane-1,10-diyl)dioxy]bis[(11aS)-8-methoxy-1,2,3,11a-tetrahydro-5H-pyrrolo[2,1-c][1,4]benzodiazepine-5-one]]", "values": [{"measurement": "IC50", "setting": "[1]; [3]", "value": 16100, "unit": "nM"}, {"measurement": "EC50", "setting": "linear pBR322 DNA", "value": 170, "unit": "nM"}, {"measurement": "GI50", "setting": "[2]", "value": 1120, "unit": "nM"}]}
